Experimental data: patent publication US7732451B2, “Naphthalene-containing melanocortin receptor-specific small molecule” (Palatin Technologies, Inc., priority 2002, dated 2010)
Read-outs that look alike come from different tables or passages of the source.

Tests used:
[1] = target: T1, hMC3-R (Homo sapiens, UniProt P41968); test: competitive inhibition binding assay, 125I-NDP-α-MSH, membranes; details: for inhibition at 1 µM: 1 μM compound, average of triplicates, read-out: Inhibition at 1 μM MC3-R
T1 construct: expressed in transfected cells
T1 sequence (P41968 whole entry): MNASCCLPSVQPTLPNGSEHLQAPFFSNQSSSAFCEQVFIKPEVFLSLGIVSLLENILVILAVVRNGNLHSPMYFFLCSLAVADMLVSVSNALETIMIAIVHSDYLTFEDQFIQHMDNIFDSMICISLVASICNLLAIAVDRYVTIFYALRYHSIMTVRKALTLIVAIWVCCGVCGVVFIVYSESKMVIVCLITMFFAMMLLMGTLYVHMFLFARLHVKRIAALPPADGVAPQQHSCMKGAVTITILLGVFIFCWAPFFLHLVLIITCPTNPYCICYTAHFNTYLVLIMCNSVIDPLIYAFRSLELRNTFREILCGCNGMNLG
Method: (§1) A competitive inhibition binding assay was conducted using membranes prepared from hMC3-R, hMC4-R, hMC5-R, and B-16 mouse melanoma cells (containing MC1-R) using 0.4 nM ^125I-NDP-α-MSH (New England Nuclear, Boston, Mass., USA) in 50 mM HEPES buffer containing 1 mM MgCl2, 2 mM CaCl2, and 5 mM KCl, at pH 7.2. The assay tube also contained a chosen concentration of the test compound of this invention, for determining its efficacy in inhibiting the binding of ^125I-NDP-α-MSH to its receptor.
(§2) Incubation was for 90 minutes at room temperature, after which the assay mixture was filtered and the membranes washed three times with ice cold buffer. The filter was dried and counted in a gamma counter for remaining radioactivity bound to the membranes. 100% specific binding was defined as the difference in radioactivity (cpm) bound to cell membranes in the absence and presence of 1 μM α-MSH. […] Each assay was conducted in triplicate and the actual mean values are described. The Ki (nM) of certain compounds of the invention were determined.

[2] = target: T2, hMC4-R (Homo sapiens, UniProt P32245); test: as above; details: for inhibition at 1 µM: 1 μM compound, average of triplicates, read-out: Inhibition at 1 μM MC4-R; for Ki: read-out: Ki (nM) MC4-R
T2 construct: expressed in transfected cells
T2 sequence (P32245 whole entry): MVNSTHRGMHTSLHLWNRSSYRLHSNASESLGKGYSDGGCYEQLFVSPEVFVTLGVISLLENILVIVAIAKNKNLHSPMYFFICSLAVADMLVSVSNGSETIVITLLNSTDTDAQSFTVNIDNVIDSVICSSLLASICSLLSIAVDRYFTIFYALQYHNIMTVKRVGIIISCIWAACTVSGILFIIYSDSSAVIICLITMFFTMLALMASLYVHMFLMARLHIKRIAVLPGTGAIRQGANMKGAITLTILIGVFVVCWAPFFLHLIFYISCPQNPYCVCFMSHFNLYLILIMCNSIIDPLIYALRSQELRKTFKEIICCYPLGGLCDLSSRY
Method: as §1, §2

[3] = target: T3, hMC5-R (Homo sapiens, UniProt P33032); test: as above; details: for inhibition at 1 µM: 1 μM compound, average of triplicates, read-out: Inhibition at 1 μM MC5-R; for Ki: read-out: Ki (nM) MC5-R
T3 construct: expressed in transfected cells
T3 sequence (P33032 whole entry): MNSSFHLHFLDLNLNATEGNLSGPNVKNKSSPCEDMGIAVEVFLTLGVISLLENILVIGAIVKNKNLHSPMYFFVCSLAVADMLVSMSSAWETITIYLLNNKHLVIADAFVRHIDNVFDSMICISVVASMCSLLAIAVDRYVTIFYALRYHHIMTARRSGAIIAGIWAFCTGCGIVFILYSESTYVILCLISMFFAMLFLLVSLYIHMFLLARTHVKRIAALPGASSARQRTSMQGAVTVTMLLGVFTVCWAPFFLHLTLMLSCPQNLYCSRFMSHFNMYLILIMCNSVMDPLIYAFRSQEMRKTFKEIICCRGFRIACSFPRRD
Method: as §1, §2

[4] = ICV feeding studies, change in food intake and body weight; format: in vivo, rat; details: 1 nmol, male Sprague-Dawley rats; for change in weight: 24 hour
Method: (§3) Change in food intake and body weight was evaluated for selected compounds. Male Sprague-Dawley rats weighing ˜300 g at the beginning of the experiment were kept on a 12 hour on/off light cycle. Lights out was adjusted to 12:00 p.m. to allow for dosing just prior to the start of their dark period. Rats (8-12/group) were fed powdered chow and water ad libitum. For 1 week before treatment, 24-hour food intake and body weight change was recorded to assess a baseline for the group during vehicle treatment. The rats were dosed ICV with vehicle or selected compounds (1-3 nmol). The changes in body weight and food intake for the 24 hour period after dosing were determined. The changes in body weight and food intake for the 48 hour period, and in same cases for 72 hours as well, after dosing were also measured to determined reversal of changes in body weight and food intake effect back to baseline.

[5] = penile erection (PE) studies in male rats; format: in vivo, rat; details: IV
Method: The ability of compounds to induce penile erection (PE) in male rats was evaluated with selected compounds. Male Sprague-Dawley rats weighing 200-250 g were kept on a 12 hour on/off light cycle with food and water ad libitum. All behavioral studies were performed between 10 a.m. and 5 p.m. Groups of 4-8 rats were treated with compounds at a variety of doses via intravenous (IV) or intracerebroventricular (ICV) routes. Immediately after treatment, rats were placed into individual polystyrene cages (27 cm long, 16 cm wide, and 25 cm high) for behavioral observation. The iv and icv treated rats were observed respectively for 30 minutes and 120 min and the number of yawns, grooming bouts and PEs were recorded in 10-minute bins.

[6] = target: T4, MC1-R (B-16 mouse melanoma cells) (Mus musculus, UniProt Q01727); test: competitive inhibition binding assay, 125I-NDP-α-MSH, membranes; details: for inhibition at 1 µM: 1 μM compound, average of triplicates, results less than 0% reported as 0%
T4 construct: B-16 mouse melanoma cells (containing MC1-R); endogenous in cells; host or cells: B-16 mouse melanoma cells
T4 sequence (Q01727 whole entry): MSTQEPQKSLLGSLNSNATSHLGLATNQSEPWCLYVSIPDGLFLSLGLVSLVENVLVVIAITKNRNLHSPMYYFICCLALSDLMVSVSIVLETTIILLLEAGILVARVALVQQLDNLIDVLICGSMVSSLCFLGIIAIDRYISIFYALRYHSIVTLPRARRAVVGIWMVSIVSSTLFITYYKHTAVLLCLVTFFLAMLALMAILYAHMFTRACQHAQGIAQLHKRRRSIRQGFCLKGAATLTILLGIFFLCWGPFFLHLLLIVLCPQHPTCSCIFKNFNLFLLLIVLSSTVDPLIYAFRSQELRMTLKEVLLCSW
Method: as §1, §2

[7] = target: T5, MC4-R (HEK-293 cells expressing MC4-R) (Homo sapiens, UniProt P32245); test: cAMP assay for agonist/antagonist status; format: cell-based; details: antagonism = inhibition of α-MSH-induced cAMP
T5 construct: expressed in transfected cells; host or cells: HEK-293
T5 sequence (P32245 whole entry): as the sequence (P32245 whole entry) above
Method: (§4) Functional evaluation of compounds at melanocortin receptors was performed by measuring the accumulation of intracellular cAMP in HEK-293 cells expressing MC3-R, MC4-R or MC5-R, and in B-16 mouse melanoma cells (containing MC1-R). Cells, suspended in Earle's Balanced Salt Solution containing 10 mM HEPES, pH 7.5, 5 mM MgCl2, 1 mM glutamine, 0.1% albumin and 0.6 mM 3-isobutyl-1-methyl-xanthine, a phosphodiesterase inhibitor, were plated in 96 well plates at a density of 0.5×10^5 cells per well. Cells were incubated with the test compounds in the presence or absence of α-MSH for 1 hour at 37° C. cAMP levels were measured by EIA (Amersham) in the cell lysates. Data analysis and EC50 values were determined using nonlinear regression analysis with Prism Graph-Pad software.
(§5) The agonist/antagonist status with respect to MC4-R of certain compounds of the invention was determined. Antagonistic activity was determined by measuring the inhibition of α-MSH-induced cAMP levels following exposure to the compounds as in Example 2.

[8] = target: T6, MC5-R (HEK-293 cells expressing MC5-R) (Homo sapiens, UniProt P33032); test: cAMP assay for agonist/antagonist status; format: cell-based; details: antagonism = inhibition of α-MSH-induced cAMP
T6 construct: expressed in transfected cells; host or cells: HEK-293
T6 sequence (P33032 whole entry): as the sequence (P33032 whole entry) above
Method: as §4, §5

[9] = target: T4, MC1-R (B-16 mouse melanoma cells); test: cAMP assay for agonist/antagonist status; format: cell-based; details: antagonism = inhibition of α-MSH-induced cAMP
Method: as §4, §5

[10] = IV feeding studies, change in food intake and body weight; format: in vivo, rat; details: 3 μg/Kg, male Sprague-Dawley rats
Method: as §3, with “The rats were dosed ICV with vehicle or selected compounds (1-3 nmol).” left out

[11] = 1 μg/Kg, 30 minutes observation, stated below baseline

Row | SMILES | inhibition at 1 µM [1] | inhibition at 1 µM [2] | inhibition at 1 µM [3] | 24 hour change in food intake [4] | change in weight [4] | mean PE [5, 11] | Ki ([1]; bound printed in μM in a Ki (nM) table, read-out: Ki MC3-R) | inhibition at 1 µM [6] | Ki ([6]; bound printed in μM in a Ki (nM) table, read-out: Ki MC1-R) | Ki [2] | Ki [3] | agonist/antagonist status as to MC4-R [7] | agonist/antagonist status as to MC5-R [8] | agonist/antagonist status as to MC1-R [9] | mean PE ([5]; 50 μg/Kg, stated not statistically relevant) | Ki ([1]; read-out: Ki (nM) MC3-R) | Ki ([6]; read-out: Ki (nM) MC1-R) | 24 hour change in food intake [10] | change in weight ([10]; 24 hour)
1 | NCCCC[C@H]1C(=O)N(CCc2ccc3ccccc3c2)CCN1C(=O)[C@@H](Cc1ccc(Cl)cc1Cl)NC(=O)[C@@H]1CC[C@H](c2ccccc2)N1 [Example 7] | 18% | 92% | 51% | -7.77 g | -5.88 g | – | – | – | – | – | – | – | – | – | – | – | – | – | –
2 | NCCCC[C@H]1C(=O)N(CCc2ccc3ccccc3c2)CCN1C(=O)[C@@H](Cc1ccc(Cl)cc1Cl)NC(=O)/C=C/c1ccccc1 [Example 8] | 46% | 96% | 60% | -10.1 g | -9.91 g | 0.13 | > 1 µM | 30% | > 1 µM | 13 nM | 410 nM | antagonist | agonist | antagonist | – | – | – | – | –
3 | NCCCC[C@H]1C(=O)N(CCc2ccc3ccccc3c2)CCN1C(=O)[C@@H](Cc1ccc(Cl)cc1Cl)NC(=O)c1ccc(Oc2ccccc2)cc1 [Example 10] | 51% | 99% | 51% | -0.6 g | -1.73 g | 0.14 | – | – | – | 1 nM | 282 nM | antagonist | agonist | antagonist | 0.25 | 0.15 µM | 0.915 µM | – | –
4 | C[C@@H]1CN(C(=O)[C@H](N)Cc2ccc(Cl)cc2Cl)[C@@H](CCCNC(=N)N)CN1CCc1ccc2ccccc2c1 [Example 11, N-{3-[1-[2(R)-Amino-3-(2,4-dichloro-phenyl)-propionyl]-5(R)-methyl-4-(2 naphthalen-2-yl-ethyl)-piperazin-2(S)-yl]-propyl}-guanidine] | 82% | 100% | 78% | -2.6 g | -0.3 g | – | – | 44% | – | 2 nM | 362 nM | antagonist | – | – | – | 0.095 µM | 1.13 µM | – | –
5 | Cc1ccc(C[C@@H](N)C(=O)N2C[C@@H](C)N(CCc3ccc4ccccc4c3)C[C@@H]2CCCNC(=N)N)c(Cl)c1 [Example 13, N-{3-[1-[2(R)-Amino-3-(2-chloro-4-methyl-phenyl)-propionyl]-5(R)-methyl-4-(2-naphthalen-2-yl-ethyl)-piperazin-2(S)-yl]-propyl}-guanidine] | 73% | 100% | 72% | -1.6 g | -3.9 g | – | – | 37% | – | 5 nM | 527 nM | antagonist | – | – | – | 0.227 µM | 0.907 µM | – | –
6 | Cc1cc(Cl)ccc1C[C@@H](N)C(=O)N1C[C@@H](C)N(CCc2ccc3ccccc3c2)C[C@@H]1CCCNC(=N)N [Example 14, N-{3-[1-[2(R)-Amino-3-(4-chloro-2-methyl-phenyl)-propionyl]-5(R)-methyl-4-(2-naphthalen-2-yl-ethyl)-piperazin-2(S)-yl]-propyl}-guanidine] | 83% | 100% | 82% | -5.5 g | no change | – | – | 23% | – | 1 nM | 219 nM | partial agonist | – | – | – | 0.099 µM | 1.05 µM | – | –
7 | Cc1ccc(C[C@@H](N)C(=O)N2C[C@@H](C)N(CCc3ccc4ccccc4c3)C[C@@H]2CCCNC(=N)N)c(C)c1 [Example 16, N-{3-[1-[2(R)-Amino-3-(2,4-dimethyl-phenyl)-propionyl]-5(R)-methyl-4-(2-naphthalen-2-yl-ethyl)-piperazin-2(S)-yl]-propyl}-guanidine] | 67% | 98% | 73% | -2.6 g | -5 g | – | – | 22% | – | 11 nM | 717 nM | agonist | – | – | – | 0.157 µM | 1.22 µM | -7.3 g | -6.3 g
8 | C[C@@H]1CN(CCc2ccc3ccccc3c2)C[C@H](CCCNC(=N)N)N1C(=O)[C@H](N)Cc1ccc(Cl)cc1Cl [Example 17 (R)-CH3, N-{3-[1-[2(R)-Amino-3-(2,4-dichloro-phenyl)-propionyl]-6(R)-methyl-4-(2-naphthalen-2-yl-ethyl)-piperazin-2(S)-yl]-propyl}-guanidine] | 32% | 95% | 36% | – | – | – | – | 14% | – | – | – | – | – | – | – | – | – | – | –
9 | C[C@H]1CN(CCc2ccc3ccccc3c2)C[C@H](CCCNC(=N)N)N1C(=O)[C@H](N)Cc1ccc(Cl)cc1Cl [Example 17 (S)-CH3, N-{3-[1-[2(R)-Amino-3-(2,4-dichloro-phenyl)-propionyl]-6(S)-methyl-4-(2-naphthalen-2-yl-ethyl)-piperazin-2(S)-yl]-propyl}-guanidine] | 47% | 97% | 64% | – | – | – | – | 3% | – | 21 nM | 602 nM | agonist | inactive | agonist | – | 0.551 µM | 3.18 µM | – | –
10 | N=C(N)NCCC[C@H]1CN(CCOc2ccc3ccccc3c2)CCN1C(=O)[C@@H](N)Cc1ccc(Cl)cc1Cl [Example 18] | 33% | 91% | 40% | – | – | – | – | 25% | – | – | – | – | – | – | – | – | – | – | –
